Measured values: patent US8895579B2, “Heterotricyclic AMPA receptor antagonists for treatment of epilepsy, pain, and other neurological disorders and diseases” (Northwestern University, priority 2010, dated 2014)
“Also recorded” adds a separate entry of the source.

Experiments:
[1] = test system: AMPA receptor-mediated EPSCs in primary hippocampal neurons; assay: AMPA receptor EPSC charge transfer during spontaneous synaptic bursts, whole-cell voltage clamp, cultured hippocampal neurons; type: cell-based; conditions: 30 μM; for charge transfer during bursts of AMPA receptor-mediated synaptic events as a percent of the charge transfer during the control period: voltage clamped at −70 mV
Protocol: (§1) Experiments involving primary hippocampal neurons were carried out as described previously (Vivithanaporn et al., 2007). Dissociated neurons were cultured from E18 prenatal hippocampi and were used for analysis from between 17 and 28 days in vitro. The extracellular solution was the same as used for recombinant receptor analysis, while the internal solution for voltage clamp recordings contained (in mM) 95 CsF, 25 CsCl, 10 Cs-HEPES, 10 EGTA, 2 NaCl, 2 Mg-ATP, 10 QX-314, 5 TEA. and 5 4-AP (pH 7.3) and the internal solution for current clamp recordings contained (in mM) 120 KMeSO4, 5 KCl, 5 NaCl, 1 MgCl2, 11 Na-HEPES, 10 phosphocreatine, 4 Na-ATP, and 0.3 Na-GTP (pH 7.0). Borosilicate patch electrodes were pulled and fire polished to 3-5 MΩ resistance. Both whole cell current clamp and voltage clamp recordings were performed using an Axopatch 200B amplifier (MDS, Sunnyvale, Calif.) and filtered at 20 kHz. Gigaohm seals were established in voltage clamp mode and, after membrane rupture, the recordings were carried out either in voltage clamp (clamped at Vm=−70 mV) with a […] series resistance, which was compensated to ˜60%, or in current clamp mode ([…]) with the bridge balance was corrected and pipette resistance neutralized. In vitro status epilepticus (SE) was induced as described previously (Deshpande et al., 2007; Pal et al., 1999) and action potentials were recorded in current clamp mode. Briefly for in vitro SE, magnesium-containing external solution was exchanged for external solution without magnesium and supplemented with 2 μM glycine. This solution exchange produced a period of rapid depolarization and increased AP firing, followed by a period of channel inactivation and reduced AP firing. After channel inactivation, neurons characteristically would hyperpolarize to hold at a membrane voltage (Vm) which was depolarized relative to control Vm, with an increase in AP firing frequency. […] External solutions were bath-applied at a flow rate of 1.5-2 ml/minute. After recording a basal control period, IKM compounds were applied for five minutes (10 minutes for in vitro SE experiments) and changes in excitatory post-synaptic current (EPSC) charge transfer or action potential (AP) frequency were analyzed during the last two minutes of IKM application.
We first measured the actions of the IKM compounds on the charge transfer during spontaneously occurring, polysynaptic bursts of AMPA receptor excitatory post-synaptic currents (EPSCs) in cultured hippocampal neurons (recorded in the presence of bicuculline methiodide and picrotoxin to inhibit GABAA receptors and D-APV to inhibit NMDA receptors). […] IKM-159 had the greatest inhibitory effect at a fixed concentration of 30 μM, producing a reduction in charge transfer of 65±5% (n=6, p<0.01). […] Despite the polar chemical nature of the compounds, recoveries to basal EPSC charge transfers were minimal.

[2] = molecular target: T1, recombinant homomeric GluA4 AMPA receptor (Rattus norvegicus, UniProt P19493); assay: Whole-cell patch clamp of recombinant GluA4 receptors in HEK293-T/17 cells; type: cell-based; conditions: for remaining activity at 30 µM: HEK293T/17, read-out: GluA4 peak current as percent of control amplitude; for inhibition at 30 µM: HEK293T/17, read-out: reduction from control GluA4 peak glutamate current amplitude (percent inhibition)
T1 construct: expressed in transfected cells; host or cells: HEK293-T/17 (CRL-11268)
Protocol: Cell Culture and Transfection. Human embryonic kidney cells expressing T-antigen, clone 17 (HEK293-T/17) (CRL-11268) were cultured at 37° C. with 5% CO2 in DMEM, including 100 μg/mL penicillin, 100 μg/mL streptomycin, and 10% heat-inactivated fetal bovine serum. Cells were split twice per week. For transfection, HEK293-T/17 cells were plated at 3×10^4 cells/cm^2 for pharmacology experiments and 5×10^3 cells/cm^2 for physiology experiments in fresh medium 24 h prior to transfection. Cells were transfected with AMPA or KA receptor plasmid cDNAs using Mirus Trans-IT transfection reagent (Minus Bio Corporation, Madison, Wis.) at a ratio of 1 μg cDNA: 3 μL Trans-1T reagent and maintained in transfection medium overnight followed by a media change the next day. Transfected cells were maintained in this medium until the experiment was conducted (48-72 h total post transfection).
Electrophysiology. For analysis of recombinant receptors, HEK293-T/17 cells were co-transfected with 0.2 μg of iGluR cDNA and 0.05 μg of eGFP. For heterologous GluA1/GluA2 receptors, the GluA1:GluA2 cDNA ratio was 1:6. Two to three days post-transfection, eGFP-expressing cells were lifted from the cover slip and voltage clamped in whole cell mode. The internal solution contained (in mM) 30 CsF, 110 CsCl, 10 HEPES, 4 NaCl, 5 EGTA and 0.5 CaCl2 (pH 7.3), while the extracellular solution contained (in mM) 140 NaCl, 10 glucose, 10 Cs-HEPES, 3 KCl, 2 CaCl2 and 1 MgCl2 (pH 7.3). Borosilicate patch electrodes were pulled and fire polished to 2-3 MO resistance. Lifted cells were maintained in a laminar stream of extracellular solution from a triple-barreled flow pipe, which was rapidly translated using a piezoceramic bimorph for fast application of glutamate or kainate alone or in combination with various antagonists (the 10-90% rise time of glutamate-evoked currents was ˜1 ms). IKM compounds were applied for three minutes with analysis performed on the final one minute of drug application.
Statistical analysis. At least three separate experiments were performed for each assay. For data involving three or more groups, a one-way analysis of variance (ANOVA) was performed with a Tukey-Kramer post hoc test for comparison amongst the groups. For data involving two groups, an unpaired student's t-test was performed; if the standard deviations between the two groups were statistically significant, a Welsh correction was added. If the data involving three or more groups or data involving two groups where multiple treatments were performed on the same sample, a repeated measures ANOVA and paired t-test were used, respectively, for analysis of significance. Dose-inhibition response curves were fitted, with the maximum value constrained to 100 and the minimum value constrained to values greater than or equal to zero, using the following equation in order to calculate the IC50 values: Response=minimum+(maximum−minimum)/(1+(IC50^hill slope/dose^hillslope)) All calculations for statistical analysis were carried out with Graphpad Prism4 software (La Jolla, Calif.). Data are presented as mean±S.E.M. with statistical significance set at p<0.05.

[3] = test system: cultured hippocampal neurons; assay: Whole-cell current elicited in cultured hippocampal neurons; type: cell-based; conditions: 30 μM; GABAA and NMDA receptor antagonists present
Protocol: Experiments involving primary hippocampal neurons were carried out as described previously (Vivithanaporn et al., 2007). Dissociated neurons were cultured from E18 prenatal hippocampi and were used for analysis from between 17 and 28 days in vitro. The extracellular solution was the same as used for recombinant receptor analysis, while the internal solution for voltage clamp recordings contained (in mM) 95 CsF, 25 CsCl, 10 Cs-HEPES, 10 EGTA, 2 NaCl, 2 Mg-ATP, 10 QX-314, 5 TEA. and 5 4-AP (pH 7.3) and the internal solution for current clamp recordings contained (in mM) 120 KMeSO4, 5 KCl, 5 NaCl, 1 MgCl2, 11 Na-HEPES, 10 phosphocreatine, 4 Na-ATP, and 0.3 Na-GTP (pH 7.0). Borosilicate patch electrodes were pulled and fire polished to 3-5 MΩ resistance. Both whole cell current clamp and voltage clamp recordings were performed using an Axopatch 200B amplifier (MDS, Sunnyvale, Calif.) and filtered at 20 kHz. […] In vitro status epilepticus (SE) was induced as described previously (Deshpande et al., 2007; Pal et al., 1999) and action potentials were recorded in current clamp mode. […] After recording a basal control period, IKM compounds were applied for five minutes (10 minutes for in vitro SE experiments) and changes in excitatory post-synaptic current (EPSC) charge transfer or action potential (AP) frequency were analyzed during the last two minutes of IKM application. […]

[4] = test system: mice; conditions: Ikoma et al., 2008; Oikawa et al., 2009 and unpublished observations; cited from earlier work
[5] = test system: AMPA receptors; conditions: cited from earlier work; for concentration range inhibiting AMPA receptors: Bleakman et al., 1996
[6] = test system: primary hippocampal neurons; assay: Spontaneous action potential firing, current clamp, cultured hippocampal neurons; type: cell-based; conditions: 20 μM
Protocol: as §1
Effects of IKM-159 on neuronal excitability. […] To determine if altered neuronal excitability could contribute to this behavioral phenotype, we examined the effect of IKM-86 and IKM-159 on action potential firing in cultured hippocampal neurons. Spontaneous action potentials were recorded in current-clamp mode before, during and after application of 20 μM IKM-86 and IKM-159. […]

[7] = test system: primary hippocampal neurons; assay: In vitro model of status epilepticus (Mg2+ removal, 2 μM glycine), action potential firing in hippocampal neurons; type: cell-based; conditions: 1 μM; SE 2.0±0.3 Hz
Protocol: as §1
Several AMPA receptor selective antagonists reduce neuronal hyperactivity in both acute brain slice preparations and in in vitro models of epilepsy (Grasso et al., 1999; Szabados et al., 2001). […] We therefore tested the efficacy of IKM-159 in reducing the hyperactive neuronal phenotype in dissociated hippocampal neurons using an in vitro model of status epilepticus (SE) (Deshpande et al., 2007; Pal et al., 1999). […]

T1 sequence (P19493 21-902 isoform P19493-2 limits assumed): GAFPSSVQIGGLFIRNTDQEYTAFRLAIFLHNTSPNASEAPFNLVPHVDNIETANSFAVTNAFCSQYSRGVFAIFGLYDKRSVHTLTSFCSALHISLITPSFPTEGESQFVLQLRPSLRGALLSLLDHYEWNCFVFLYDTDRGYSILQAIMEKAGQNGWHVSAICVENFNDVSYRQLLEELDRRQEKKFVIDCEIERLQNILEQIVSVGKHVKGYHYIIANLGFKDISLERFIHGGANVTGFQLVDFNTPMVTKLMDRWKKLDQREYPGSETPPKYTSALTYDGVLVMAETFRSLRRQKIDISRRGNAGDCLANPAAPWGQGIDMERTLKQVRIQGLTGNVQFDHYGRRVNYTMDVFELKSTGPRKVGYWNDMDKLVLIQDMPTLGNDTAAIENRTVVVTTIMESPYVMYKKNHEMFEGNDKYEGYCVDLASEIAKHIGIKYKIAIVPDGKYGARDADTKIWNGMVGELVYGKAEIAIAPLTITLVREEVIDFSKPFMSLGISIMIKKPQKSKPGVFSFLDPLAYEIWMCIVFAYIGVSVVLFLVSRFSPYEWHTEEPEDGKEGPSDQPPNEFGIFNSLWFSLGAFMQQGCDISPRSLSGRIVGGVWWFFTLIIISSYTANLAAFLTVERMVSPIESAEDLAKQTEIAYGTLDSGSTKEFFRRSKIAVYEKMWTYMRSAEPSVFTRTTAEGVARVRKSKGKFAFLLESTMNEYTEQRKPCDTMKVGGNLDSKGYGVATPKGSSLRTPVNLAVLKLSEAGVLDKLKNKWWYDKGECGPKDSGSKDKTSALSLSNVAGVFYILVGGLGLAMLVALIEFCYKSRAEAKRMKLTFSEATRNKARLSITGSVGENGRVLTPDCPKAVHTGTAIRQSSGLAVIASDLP

SMILES | reduction from control charge transfer [1] [%] | charge transfer during bursts of AMPA receptor-mediated synaptic events as a percent of the charge transfer during the control period [1] [%] | remaining activity at 30 µM [2] [%] | inhibition at 30 µM [2] [%] | behavioral phenotype in mice [4] | also measured
O=C(O)C[C@@]12O[C@H]3CCCCO[C@H]3C1CN[C@H]2C(=O)O (stereo partly drawn) [IKM-98] | 11±14 | 89±14 | 88 ± 2 | 12 ± 2 | varying degrees of hyperactivity | whole-cell current elicited [3]: 380±160 pA
CNC(=O)N1N=C(c2ccc(N)cc2)c2cc3c(cc2CC1C)OCO3 (stereo not drawn) [GYKI 53655] | – | – | – | – | – | concentration range inhibiting AMPA receptors [5]: low micromolar range
O=C(O)C[C@@]12O[C@H]3[C@H](O)[C@H](O)CO[C@H]3C1CN[C@H]2C(=O)O (stereo partly drawn) [IKM-86] | 42±8 | 58±8 | 81 ± 2 | 19 ± 2 | hypoactive phenotypes similar to cataleptic states; also recorded: marked hypoactivity and immobility | persistence of reduction in action potential firing frequency after removal of compound [6]: prolonged; action potential firing frequency in presence of compound ([6]; basal (spontaneous) firing): 0.9±0.3 Hz
Cc1cc(-c2ccc(/N=N/c3ccc4c(S(=O)(=O)[O-])cc(S(=O)(=O)[O-])c(N)c4c3O)c(C)c2)ccc1/N=N/c1ccc2c(S(=O)(=O)[O-])cc(S(=O)(=O)[O-])c(N)c2c1O.[Na+].[Na+].[Na+].[Na+] [EB] | – | – | – | – | – | IC50 ([5]; non-competitive antagonist, Keller et al., 1993, Weigand et al., 1998): high nanomolar-low micromolar range
N#Cc1cc2c(cc1[N+](=O)[O-])=NC(=O)C(=O)N=2 [CNQX, 6-cyano-7-nitroquinoxaline-2,3-dione, reference compound] | – | – | – | – | – | AP firing frequency in SE condition with compound [7]: 1.2±0.4 Hz
O=C(O)C[C@@]12O[C@H]3[C@H](O)[C@H](O)CCO[C@H]3C1CN[C@H]2C(=O)O (stereo partly drawn) [IKM-107] | 39±12 | 62±12 | 95 ± 2 | 5 ± 2 | varying degrees of hyperactivity | whole-cell current elicited [3]: 47±11 pA
O=C(O)C[C@@]12O[C@H]3C=CCN[C@H]3C1C(=O)N[C@H]2C(=O)O (stereo partly drawn) [IKM-27] | 31±9 | 70±9 | 80 ± 6 | 20 ± 6 | hypoactive phenotypes similar to cataleptic states | –
O=C(O)C[C@@]12O[C@H]3CCCO[C@H]3C1CN[C@H]2C(=O)O (stereo partly drawn) [IKM-110] | 34±12 | 66±12 | 86 ± 2 | 14 ± 2 | varying degrees of hyperactivity | –
CC1=NN=C(c2ccc(N)cc2)c2cc3c(cc2C1)OCO3 [GYKI 52466] | – | – | – | – | – | concentration range inhibiting AMPA receptors [5]: low micromolar range
